From patent US12486274B2, “Substituted pyrazolo-pyrimidines and uses thereof” (Verge Analytics, Inc., priority 2020, dated 2025)

Molecular target: Full length human recombinant PIKFYVE (Homo sapiens (Human), UniProt Q9Y2I7)
Test: Inhibition of PIKfyve (microfluidic electrophoresis kinase assay)
Assay type: biochemical
Details: 2 nM enzyme, PI3P/PS substrate, 3 h at room temperature, 12 concentrations
Experimental: Full length human recombinant PIKFYVE expressed in baculovirus expression system as N-terminal GST-fusion protein (265 kDa) was obtained from Carna Biosciences (Kobe, Japan). The kinase substrate was prepared by mixing and sonicating fluorescently-labeled phosphatidylinositol 3-phosphate (PI3P) with phospho-L-serine (PS) at a 1:10 ratio in 50 mM HEPES buffer pH7.5.
The kinase reactions were assembled in 384-well plates (Greiner) in a total volume of […] as follows. Kinase protein was pre-diluted in an assay buffer comprising 25 mM HEPES, pH 7.5, 1 mM DTT, 2.5 mM MgCl2, and 2.5 mM MnCl2, and 0.005% Triton X-100, and dispensed into a 384-well plate (10 μL per well). Test compounds were serially pre-diluted in DMSO and added to the protein samples by acoustic dispensing (Labcyte Echo). The concentration of DMSO was equalized to 1% in all samples. All test compounds were tested at 12 concentrations. Apilimod was used as a reference compound and was tested in identical manner in each assay plate. Control samples (0%-inhibition, in the absence of inhibitor, DMSO only) and 100%-inhibition (in the absence of enzyme) were assembled in replicates of four and were used to calculate %-inhibition in the presence of compounds. The reactions were initiated by addition of 10 μL of 2× PI3P/PS substrate supplemented with ATP. The final concentration of enzyme was 2 nM, the final concentration of ATP was 10 mM, and the final concentration of PI3P/PS substrate was 1 μM (PI3P). The kinase reactions were allowed to proceed for 3 h at room temperature. Following incubation, the reactions were quenched by addition of […] of termination buffer (100 mM HEPES, pH 7.5, 0.01% Triton X-100, 20 mM EDTA). Terminated plates were analyzed on a microfluidic electrophoresis instrument (Caliper LabChip® 3000, Caliper Life Sciences/Perkin Elmer). The change in the relative fluorescence intensity of the PI (3) P substrate and PI (3,5) P product peaks was measured. The activity in each test sample was determined as the product to sum ratio (PSR): P/(S+P), where P is the peak height of the product, and S is the peak height of the substrate. Percent inhibition (Pinh) was determined using the following equation: Pinh=(PSR0% inh−PSRcompound)/(PSR0% inh−PSR100% inh)*100 in which PSRcompound is the product/sum ratio in the presence of compound, PSR0% inh is the product/sum ratio in the absence of compound, and the PSR100% inh is the product/sum ratio in the absence of the enzyme.

Full length human recombinant PIKFYVE, sequence (Q9Y2I7 whole entry): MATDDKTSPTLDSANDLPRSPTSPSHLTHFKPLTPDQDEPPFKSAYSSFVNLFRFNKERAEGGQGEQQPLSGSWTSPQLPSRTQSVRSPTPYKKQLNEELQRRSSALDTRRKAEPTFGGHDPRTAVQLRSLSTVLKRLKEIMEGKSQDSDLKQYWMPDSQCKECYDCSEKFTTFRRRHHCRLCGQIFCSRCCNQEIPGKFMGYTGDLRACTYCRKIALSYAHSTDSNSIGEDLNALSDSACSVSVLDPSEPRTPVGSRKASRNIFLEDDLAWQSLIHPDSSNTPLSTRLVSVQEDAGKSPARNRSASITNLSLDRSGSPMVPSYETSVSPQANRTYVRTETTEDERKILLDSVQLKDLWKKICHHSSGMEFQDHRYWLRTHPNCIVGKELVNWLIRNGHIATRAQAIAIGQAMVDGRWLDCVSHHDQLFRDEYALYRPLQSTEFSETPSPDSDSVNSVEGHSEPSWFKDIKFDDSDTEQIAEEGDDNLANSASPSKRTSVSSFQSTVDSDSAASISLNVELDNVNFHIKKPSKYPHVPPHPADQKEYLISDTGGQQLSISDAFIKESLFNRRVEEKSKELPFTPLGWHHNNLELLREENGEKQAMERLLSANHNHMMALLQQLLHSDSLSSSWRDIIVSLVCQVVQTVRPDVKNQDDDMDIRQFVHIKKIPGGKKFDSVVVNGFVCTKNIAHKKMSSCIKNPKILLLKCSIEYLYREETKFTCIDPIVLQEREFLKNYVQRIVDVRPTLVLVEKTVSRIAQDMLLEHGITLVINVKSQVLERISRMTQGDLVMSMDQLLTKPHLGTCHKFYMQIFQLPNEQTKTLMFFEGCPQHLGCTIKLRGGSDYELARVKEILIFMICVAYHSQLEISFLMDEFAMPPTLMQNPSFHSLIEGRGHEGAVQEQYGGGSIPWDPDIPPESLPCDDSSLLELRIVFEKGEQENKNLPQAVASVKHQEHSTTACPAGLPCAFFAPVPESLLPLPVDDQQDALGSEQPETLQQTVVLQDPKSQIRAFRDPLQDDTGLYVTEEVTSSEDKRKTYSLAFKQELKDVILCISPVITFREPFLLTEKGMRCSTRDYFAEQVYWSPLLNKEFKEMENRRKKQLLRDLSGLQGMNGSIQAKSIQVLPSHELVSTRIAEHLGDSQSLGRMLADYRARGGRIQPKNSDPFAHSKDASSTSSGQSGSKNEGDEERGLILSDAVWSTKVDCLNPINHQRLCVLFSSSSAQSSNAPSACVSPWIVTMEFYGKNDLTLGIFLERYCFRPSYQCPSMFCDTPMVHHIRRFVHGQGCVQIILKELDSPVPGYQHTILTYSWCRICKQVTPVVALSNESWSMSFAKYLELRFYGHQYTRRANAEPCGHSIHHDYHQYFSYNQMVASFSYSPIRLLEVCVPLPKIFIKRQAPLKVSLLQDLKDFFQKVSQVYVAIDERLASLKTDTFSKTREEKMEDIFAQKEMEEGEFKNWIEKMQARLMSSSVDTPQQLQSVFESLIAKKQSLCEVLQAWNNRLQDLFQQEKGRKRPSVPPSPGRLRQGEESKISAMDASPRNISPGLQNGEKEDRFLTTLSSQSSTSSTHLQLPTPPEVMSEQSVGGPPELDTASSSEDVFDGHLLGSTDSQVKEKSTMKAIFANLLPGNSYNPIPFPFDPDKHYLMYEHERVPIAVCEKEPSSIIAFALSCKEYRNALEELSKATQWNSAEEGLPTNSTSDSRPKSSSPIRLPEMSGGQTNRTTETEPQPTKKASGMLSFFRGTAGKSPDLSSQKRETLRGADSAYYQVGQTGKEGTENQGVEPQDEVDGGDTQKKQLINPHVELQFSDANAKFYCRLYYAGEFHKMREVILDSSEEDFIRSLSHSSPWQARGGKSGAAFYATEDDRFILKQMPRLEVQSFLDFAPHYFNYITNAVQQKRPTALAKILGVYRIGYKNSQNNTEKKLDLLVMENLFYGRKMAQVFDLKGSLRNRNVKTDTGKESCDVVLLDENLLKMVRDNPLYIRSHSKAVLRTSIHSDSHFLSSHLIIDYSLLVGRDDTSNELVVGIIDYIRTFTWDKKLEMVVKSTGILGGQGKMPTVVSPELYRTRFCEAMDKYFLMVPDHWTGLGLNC

IC50 [nM] | SMILES
99.6 | COCC(COC)NC(=O)c1cc2nc(-n3ccc(-c4cccc(C)c4)n3)cc(N3CCOCC3)n2n1 [Example 39, N-(1,3-dimethoxypropan-2-yl)-7-morpholino-5-(3-(m-tolyl)-1H-pyrazol-1-yl)pyrazolo[1,5-a]pyrimidine-2-carboxamide]
113 | Cc1cccc(-c2ccn(-c3cc(N4CCOCC4)n4nc(C(=O)N5CCC56COC6)cc4n3)n2)c1 [Example 46, (7-morpholino-5-(3-(m-tolyl)-1H-pyrazol-1-yl)pyrazolo[1,5-a]pyrimidin-2-yl) (6-oxa-1-azaspiro[3.3]heptan-1-yl)methanone]
137 | Cc1cccc(-c2ccn(-c3cc(N4CCOCC4)n4nc(C(=O)N5CCC5)cc4n3)n2)c1 [Example 28, azetidin-1-yl(7-morpholino-5-(3-(m-tolyl)-1H-pyrazol-1-yl)pyrazolo[1,5-a]pyrimidin-2-yl)methanone]
258 | Cc1cccc(-c2ccn(-c3cc(N4CCOCC4)n4nc(C(=O)NCCN(C)C)cc4n3)n2)c1 [Example 40, N-(2-(dimethylamino)ethyl)-7-morpholino-5-(3-(m-tolyl)-1H-pyrazol-1-yl)pyrazolo[1,5-a]pyrimidine-2-carboxamide]
254 | Cc1cccc(-c2ccn(-c3cc(N4CCOCC4)n4nc(C(=O)N5CCN(C)CC5)cc4n3)n2)c1 [Example 32, (4-methylpiperazin-1-yl) (7-morpholino-5-(3-(m-tolyl)-1H-pyrazol-1-yl)pyrazolo[1,5-a]pyrimidin-2-yl)methanone]
105 | Cc1cccc(-c2ccn(-c3cc(N4CCOCC4)n4nc(C(=O)N5CC6(COC6)C5)cc4n3)n2)c1 [Example 45, (7-morpholino-5-(3-(m-tolyl)-1H-pyrazol-1-yl)pyrazolo[1,5-a]pyrimidin-2-yl) (2-oxa-6-azaspiro[3.3]heptan-6-yl)methanone]
79 | Cc1cccc(-c2ccn(-c3cc(N4CCOCC4)n4nc(C(=O)NCC5(CO)COC5)cc4n3)n2)c1 [Example 44, N-((3-(hydroxymethyl)oxetan-3-yl)methyl)-7-morpholino-5-(3-(m-tolyl)-1H-pyrazol-1-yl)pyrazolo[1,5-a]pyrimidine-2-carboxamide]
80.9 | c1ccc(-c2ccn(-c3cc(N4CCOCC4)n4nc(-c5cn[nH]c5)cc4n3)n2)cc1 [Compound 116, 4-[5-(3-phenylpyrazol-1-yl)-2-(1H-pyrazol-4-yl)pyrazolo[1,5-a]pyrimidin-7-yl]morpholine]
3150 | Cc1ccccc1-c1cc(Nc2cc(N3CCOCC3)n3nc(-c4ccncc4)cc3n2)n[nH]1 [Example 3, 7-morpholino-N-[5-(o-tolyl)-1H-pyrazol-3-yl]-2-(4-pyridyl)pyrazolo[1,5-a]pyrimidin-5-amine]
94.6 | Cc1cccc(-c2ccn(-c3cc(N4CCOCC4)n4nc(C(=O)N5CCCC5)cc4n3)n2)c1 [Example 29, (7-morpholino-5-(3-(m-tolyl)-1H-pyrazol-1-yl)pyrazolo[1,5-a]pyrimidin-2-yl) (pyrrolidin-1-yl)methanone]
122 | Cc1cccc(-c2ccn(-c3cc(N4CCOCC4)n4nc(C(=O)NOC5COC5)cc4n3)n2)c1 [Example 47, 7-morpholino-N-(oxetan-3-yloxy)-5-(3-(m-tolyl)-1H-pyrazol-1-yl)pyrazolo[1,5-a]pyrimidine-2-carboxamide]
25.7 | Cc1cccc(-c2ccn(-c3cc(N4CCOCC4)n4nc(C(=O)NC(C)C)cc4n3)n2)c1 [Example 38, N-isopropyl-7-morpholino-5-(3-(m-tolyl)-1H-pyrazol-1-yl)pyrazolo[1,5-a]pyrimidine-2-carboxamide]
437 | CCN(C)C(=O)c1cc2nc(-n3ccc(-c4cccc(C)c4)n3)cc(N3CCOCC3)n2n1 [Example 25, N-ethyl-N-methyl-7-morpholino-5-(3-(m-tolyl)-1H-pyrazol-1-yl)pyrazolo[1,5-a]pyrimidine-2-carboxamide]

Continued, compound first:

SMILES | IC50 [nM]
Nc1ncccc1-c1cc2nc(-n3ccc(-c4ccccc4)n3)cc(N3CCOCC3)n2n1 [Compound 70, 3-[7-morpholino-5-(3-phenylpyrazol-1-yl)pyrazolo[1,5-a]pyrimidin-2-yl]pyridin-2-amine] | 378
Cc1cc(-c2cc3nc(-n4ccc(-c5ccccc5)n4)cc(N4CCOCC4)n3n2)n(C)n1 [Compound 85, 4-[2-(2,5-dimethylpyrazol-3-yl)-5-(3-phenylpyrazol-1-yl)pyrazolo[1,5-a]pyrimidin-7-yl]morpholine] | 215
O=C(NCC1COC1)c1cc2nc(-n3ccc(-c4ccccc4)n3)cc(N3CCOCC3)n2n1 [Compound 76, 7-morpholino-N-(oxetan-3-ylmethyl)-5-(3-phenylpyrazol-1-yl)pyrazolo[1,5-a]pyrimidine-2-carboxamide] | 1590
c1ccc(-c2cnn(-c3cc(N4CCOCC4)n4nc(-c5ccccn5)cc4n3)c2)cc1 [Compound 78, 4-[5-(4-phenylpyrazol-1-yl)-2-(2-pyridyl)pyrazolo[1,5-a]pyrimidin-7-yl]morpholine] | 441
Cc1cccc(-c2cnn(-c3cc(N4CCOCC4)n4nc(-c5cncnc5)cc4n3)c2)c1 [Compound 58, 4-[5-[4-(m-tolyl)pyrazol-1-yl]-2-pyrimidin-5-yl-pyrazolo[1,5-a]pyrimidin-7-yl]morpholine] | > 20000
c1ccc(-c2ccn(-c3cc(N4CCOCC4)n4nc(-c5cccnc5)cc4n3)n2)cc1 [Compound 64, 4-[5-(3-phenylpyrazol-1-yl)-2-(3-pyridyl)pyrazolo[1,5-a]pyrimidin-7-yl]morpholine] | 68.1
Cc1cccc(-c2cnn(-c3cc(N4CCOCC4)n4nc(-c5cccnc5N)cc4n3)c2)c1 [Compound 59, 3-[7-morpholino-5-[4-(m-tolyl)pyrazol-1-yl]pyrazolo[1,5-a]pyrimidin-2-yl]pyridin-2-amine] | > 20000
Cc1cccc(-c2ccn(-c3cc(N4CCOCC4)n4nc(C(=O)NC5CCN(C)CC5)cc4n3)n2)c1 [Compound 54, N-(1-methyl-4-piperidyl)-7-morpholino-5-[3-(m-tolyl)pyrazol-1-yl]pyrazolo[1,5-a]pyrimidine-2-carboxamide] | 126
Cc1cccc(-c2ccn(-c3cc(N4CCOCC4)n4nc(C(=O)N[C@@H]5CCOC5)cc4n3)n2)c1 [Compound 51, 7-morpholino-5-[3-(m-tolyl)pyrazol-1-yl]-N-[(3R)-tetrahydrofuran-3-yl]pyrazolo[1,5-a]pyrimidine-2-carboxamide] | 64.7
c1ccc(-c2ccn(-c3cc(N4CCOCC4)n4nc(-c5ncccn5)cc4n3)n2)cc1 [Compound 63, 4-[5-(3-phenylpyrazol-1-yl)-2-pyrimidin-2-yl-pyrazolo[1,5-a]pyrimidin-7-yl]morpholine] | 693
CC(C)NC(=O)c1cc2nc(-n3ccc(-c4ccccc4)n3)cc(N3CCOCC3)n2n1 [Compound 73, N-isopropyl-7-morpholino-5-(3-phenylpyrazol-1-yl)pyrazolo[1,5-a]pyrimidine-2-carboxamide] | 335
Cc1cccc(-c2ccn(-c3cc(N4CCOCC4)n4nc(C(=O)N[C@H]5CCN(C)C5)cc4n3)n2)c1 [Compound 48, N-[(3S)-1-methylpyrrolidin-3-yl]-7-morpholino-5-[3-(m-tolyl)pyrazol-1-yl]pyrazolo[1,5-a]pyrimidine-2-carboxamide] | 41.3
Nc1nccc(-c2cc3nc(-n4ccc(-c5ccccc5)n4)cc(N4CCOCC4)n3n2)n1 [Compound 104, 4-[7-morpholino-5-(3-phenylpyrazol-1-yl)pyrazolo[1,5-a]pyrimidin-2-yl]pyrimidin-2-amine] | 106
Cc1cccc(-c2ccn(-c3cc(N4CCOCC4)n4nc(C(=O)N[C@H]5CCOC5)cc4n3)n2)c1 [Compound 50, 7-morpholino-5-[3-(m-tolyl)pyrazol-1-yl]-N-[(3S)-tetrahydrofuran-3-yl]pyrazolo[1,5-a]pyrimidine-2-carboxamide] | 18.4
c1ccc(-c2ccn(-c3cc(N4CCOCC4)n4nc(-c5ccccn5)cc4n3)n2)cc1 [Compound 72, 4-[5-(3-phenylpyrazol-1-yl)-2-(2-pyridyl)pyrazolo[1,5-a]pyrimidin-7-yl]morpholine] | 281
Cc1cccc(-c2ccn(-c3cc(N4CCOCC4)n4nc(-c5ccn(C)n5)cc4n3)n2)c1 [Compound 61, 4-[2-(1-methylpyrazol-3-yl)-5-[3-(m-tolyl)pyrazol-1-yl]pyrazolo[1,5-a]pyrimidin-7-yl]morpholine] | 2.4
